According to US20220251096A1, “7,8-DIHYDRO-4H-PYRAZOLO[4,3-c]AZEPINE-6-ONE COMPOUNDS” (Eli Lilly and Company, priority 2019, published 2022):

Legend:
[1] = test system: OCI-AML3; assay: Cell growth inhibition assay, OCI-AML3; format: cell-based; conditions: Homo sapiens, OCI-AML-3, 168 h; OCI-AML3, 7 days
Method: (§1) Tumor cell lines are plated onto 96-well, black wall poly-D-lysine plates (Corning #354640), and incubated at 37° C., 5% CO2 for 18-24 hours. Compound was added at 1:3 dilutions in DMSO and cells were incubated at 37° C., 5% CO2 for 7 days. For adherent cell lines, cells were fixed and stained with propidium iodide and scanned on Acumen (channel 3 setting). For suspension cell lines, cell growth was monitored using Cell Titer-Glo reagent.

[2] = target: T1, hBRD4 (Homo sapiens, UniProt O60885); assay: NanoBRET assay, BRD4 full length; format: cell-based; conditions: NanoBRET in HEK293 cells, read after overnight incubation; mean ± Standard Deviation
T1 construct: NanLuc-BRD4 Full Length (Promega, 0.0002 μg); host or cells: HEK293
Method: HEK293 cells are seeded at 10×10^6 cells/16 mL in DMEM+10% FBS in a T-75 flask and left to attach for 4-6 hours. Transfection reagents are diluted in Opti-MEM media (no phenol red, no FBS) and 8% Fugene HD containing expression plasmids at a final concentration of the following: 1: Histone H3.3 HaloTag DNA (Promega, 0.02 μg)+NanoLuc-CREBBP-BD (Promega, 0.0002 μg); 2: Histone H3.3 HaloTag DNA (Promega, 0.02 μg)+NanoLuc-EP300-BD (Promega, 0.0002 μg); 3: Histone H4 HaloTag DNA (0.02 μg)+NanLuc-BRD4 Full Length (Promega, 0.0002 μg). The DNA/Fugene mixtures are left at RT for 10 minutes. Transfection mix (800 μL) is added per flask and immediately swirled to cover the cells. The plates are returned to the incubator for overnight transfection. The next day, HaloTag NanoBRET 618 ligand (20 μL/vial of 0.1 mM) is thawed at RT. […]
Compound is serially diluted and added to 96-well plates (2 10 mM, 3-fold dilutions, 100% DMSO). […] CREBBP/EP300 plates are read after 4 hours incubation and the BRD4 plates are read after overnight incubation. To develop plates for reading, allow all reagents to reach RT before use. […] The plate is shaken for 1 minute to mix and within 10 minutes, read on Envision plate reader with the following settings: Mirror: Luminescence; Emission filter: E600LP; 2nd emission filter: D460/50; Measurement height (mm): 6.5; Measurement time (s): 0.2 second.

[3] = test system: KG-1; assay: Cell growth inhibition assay, KG-1; format: cell-based; conditions: Homo sapiens, 168 h; KG-1, 7 days
Method: as §1

[4] = test system: OCI-AML2; assay: Cell growth inhibition assay, OCI-AML2; format: cell-based; conditions: Homo sapiens, 168 h; OCI-AML2, 7 days
Method: as §1

[5] = test system: THP-1; assay: Cell growth inhibition assay, THP-1; format: cell-based; conditions: Homo sapiens, 168 h; THP-1, 7 days
Method: as §1

[6] = target: T2, BRD4 (BD2) (Homo sapiens, UniProt O60885); assay: BromoKdELECT platform assay, BRD4 (BD2); format: binding; conditions: 11 points dose-response, mean from a duplicate experiment
T2 construct: BRD4 (Bromodomain 1 (BD1) and Bromodomain 2 (BD2)); purchased DiscoverX (BromoKdELECT service)
From the text: The purpose of this assay is to evaluate the in vitro target engagement and selectivity (https://www.discoverx.com/services/drug-discovery-development-services/epigenetic-profiling/bromoscan-epigenetic-profiling/bromokdelect). Assay measurement is based on the amount of bromodomain captured in test and control samples by using quantitative PCR technology that detects the DNA label associated to bromodomain. Compounds that bind the bromodomain active site prevents its binding to the immobilized ligand and will reduce the amount of bromodomain captured on the solid support. […] Thus, compound activity is monitored by measuring the amount of bromodomain captured in test versus control samples by using qPCR. Binding affinity for test compound-bromodomain interactions are calculated by measuring the amount of bromodomain captured on the solid support as a function of the test compound concentration.
Binding affinity (Kd) of the compounds of Examples 1 and 2 towards CREBBP, EP300 and BRD4 (Bromodomain 1 (BD1) and Bromodomain 2 (BD2)) are determined in an 11 points dose-response study (See Table 5). Data is represented as a mean from a duplicate experiment.

[7] = test system: NCI-H211; assay: Cell growth inhibition assay, NCI-H211; format: cell-based; conditions: Homo sapiens, 168 h; NCI-H211, 7 days
Method: as §1

[8] = test system: Kasumi (AML1-ETO); assay: Cell growth inhibition assay, Kasumi (AML1-ETO); format: cell-based; conditions: 168 h, 7 days
Method: as §1

[9] = test system: HL-60; assay: Cell growth inhibition assay, HL-60; format: cell-based; conditions: Homo sapiens, 168 h; HL-60, 7 days
Method: as §1

[10] = test system: SW780; assay: Cell growth inhibition assay, SW780; format: cell-based; conditions: Homo sapiens, 168 h; SW780, 7 days
Method: as §1

[11] = test system: GDM1; assay: Cell growth inhibition assay, GDM1; format: cell-based; conditions: Homo sapiens, GDM-1, 168 h; GDM1, 7 days
Method: as §1

[12] = test system: KG-1a; assay: Cell growth inhibition assay, KG-1a; format: cell-based; conditions: Homo sapiens, 168 h, 7 days
Method: as §1

[13] = test system: NCI-H1048; assay: Cell growth inhibition assay, NCI-H1048; format: cell-based; conditions: Homo sapiens, 168 h; NCI-H1048, 7 days
Method: as §1

IC50 [1]: 226 nM
IC50 [2]: 11800 nM
IC50 [4]: 207 nM
IC50 [5]: 29 nM
Kd [6]: 6800 nM
IC50 [7]: 65 nM
IC50 [9]: 328 nM
IC50 [10]: 4 nM
IC50 [13]: 18 nM
SMILES: CCNC(=O)c1ccc(-c2cc3cccc(-c4nn(C)c5c4CN(C)C(=O)CC5)c3cn2)cn1 [Example 2, 5-[8-(1,5-Dimethyl-6-oxo-7,8-dihydro-4H-pyrazolo[4,3-c]azepin-3-yl)-3-isoquinolyl]-N-ethyl-pyridine-2-carboxamide]
IC50 [3]: 83 nM
IC50 [8]: 8 nM
IC50 [11]: 280 nM
IC50 [12]: 2 nM
